# Assay results reported in paper PMC3480206 (Future microbiology, 2012).
# Read-outs that look alike come from different tables or passages of the source.
# Key:
# Mtb [1] = settings: EBA study; cited from earlier work
# Mtb [2] = settings: cited from earlier work
# Mtb [3] = settings: at its MIC and at doses used to treat adult pulmonary TB; cited from earlier work
# Mtb [4] = settings: cited from earlier work; remark: listed apart in the source
# [5] = tested on: Mtb gene clusters GC82 and GC120, iniBAC operon; settings: cited from earlier work
# Mtb [6] = settings: cited from earlier work; remark: listed apart in the source
# Mtb [7] = settings: cited from earlier work; remark: listed apart in the source
# [8] = PK evaluation on coadministration with second-line drugs; settings: mice, SQ109 and MXF coadministered
# [9] = tested on: Mycobacterium tuberculosis H37Rv; test: In vitro drug interaction, checkerboard titration by 96-well microdilution; type: cell-based
# [10] = tested on: Mycobacterium tuberculosis H37Rv; settings: cited from earlier work
# Mtb [11] = settings: cited from earlier work; remark: listed apart in the source
# Mtb [12] = settings: in vitro; cited from earlier work
# Mtb [13] = settings: mouse model of TB; cited from earlier work
# Mtb [14] = settings: versus linezolid; cited from earlier work
# [15] = in vivo; cited from earlier work
smiles,measurement,setting,value
C[C@]1(COc2ccc(N3CCC(Oc4ccc(OC(F)(F)F)cc4)CC3)cc2)Cn2cc([N+](=O)[O-])nc2O1 [Delamanid],early bactericidal activity,Mtb [1],showed activity
Cc1ncc([N+](=O)[O-])n1CCO [Metronidazole],efficacy in mouse models of latent TB,Mtb [2],not effective
"CC[C@@H](CO)NCCN[C@@H](CC)CO [EMB, ethambutol]",bacteriostatic or bactericidal,Mtb [3],bacteriostatic
same,MIC on Mtb,Mtb [4],5 to 7 µg/mL
same,Activity on Mtb gene clusters GC82 and GC120,[5],Upregulates
same,Effect on acid-fastness of Mtb,Mtb [6],Decreases
COc1c(N2CCNC(C)C2)c(F)cc2c(=O)c(C(=O)O)cn(C3CC3)c12 (stereo not drawn) [gatifloxacin],activity in mouse models,Mtb [7],comparable to INH
"COc1c(N2C[C@@H]3CCCN[C@@H]3C2)c(F)cc2c(=O)c(C(=O)O)cn(C3CC3)c12 [MXF, moxifloxacin, reference compound]",activity in mouse models,Mtb [7],comparable to INH
same,pharmacology profile on coadministration,[8],not affected
"CC(C)/N=c1\cc2n(-c3ccc(Cl)cc3)c3ccccc3nc-2cc1Nc1ccc(Cl)cc1 [CFZ, Clofazimine, reference compound]",MIC,"[9]; Mycobacterium tuberculosis, H37RV, read-out: MIC Alone",0.5 µg/mL
same,MIC Combination,"[9]; checkerboard SQ109 + CFZ, Mtb H37Rv",0.062 µg/mL
COc1nc2ccc(Br)cc2cc1[C@@H](c1ccccc1)[C@@](O)(CCN(C)C)c1cccc2ccccc12 [bedaquiline],improvement of the MIC of bedaquiline,[10],four- to eight-times
same,postantibiotic effect,Mtb [11]; bedaquiline with SQ109,14 h
same,postantibiotic effect,Mtb [11]; bedaquiline without SQ109,9 h
CC(=O)NC[C@H]1CN(c2ccc(N3CCSCC3)c(F)c2)C(=O)O1 [Sutezolid],antimycobacterial activity versus linezolid,Mtb [12],better antimycobacterial activity
same,antimycobacterial activity versus linezolid,Mtb [13],better antimycobacterial activity
same,killing in ex vivo whole-blood culture test,Mtb [14],better time-dependent killing
same,safety profile,[15],improved safety profile compared with linezolid
O=[N+]([O-])c1cn2c(n1)OC[C@@H](OCc1ccc(OC(F)(F)F)cc1)C2 [PA-824],early bactericidal activity,Mtb [1],showed activity
CC(=O)NC[C@H]1CN(c2ccc(N3CCOCC3)c(F)c2)C(=O)O1 [linezolid],early bactericidal activity,Mtb [1],minimal killing activity
"CO[C@H]1/C=C/O[C@@]2(C)Oc3c(C)c(O)c4c(O)c(c(/C=N/N5CCN(C)CC5)c(O)c4c3C2=O)NC(=O)/C(C)=C\C=C\[C@H](C)[C@H](O)[C@@H](C)[C@@H](O)[C@@H](C)[C@H](OC(C)=O)[C@@H]1C [RIF, rifampicin, reference compound]",improvement of RIF activity,[10],eightfold
